According to patent US20200129922A1, “METHOD OF REDUCING CONCENTRATION OF FLUORINE-CONTAINING COMPOUND IN SAMPLE” (Samsung Electronics Co., Ltd., priority 2018, published 2020):

What was measured:
[1] = Confirmation of solubility of CF4 for phosphonium ionic liquid (headspace CF4 by GC-MS); assay type: physicochemical; details: 5 ml ionic liquid in 60 ml serum bottle, 200 ppm CF4 in upper empty space, 24 hours shaking; control distilled water
Description: 5 ml of a phosphonium ionic liquid was put in a 60 ml glass serum bottle, and CF4 was supplied to the upper empty space at a concentration of 200 ppm based on the volume of the empty space. After air-tightening by closing a lid, the bottle was incubated for 24 hours under shaking. Then, the air in the upper empty space was collected, and a concentration of CF4 was measured using gas chromatography mass-spectrum (GC-MS). Distilled water of the same volume was used as a control group.
The CF4 removal rates in Tables 1 and 2 were calculated from the following Mathematical Equation 1:
CF4 removal rate=[(initial CF4 content−CF4 content after reaction)/initial CF4 content]×100 <Mathematical Equation 1>

[2] = at 30° C.; cited from earlier work

| Molecule | CF4 reduction rate (%) [1] [%] | solubility of CF4 in water [2] [µg/mL] |
| --- | --- | --- |
| trihexyl tetradecyl phosphonium bis(trifluoromethylsulfonyl)imide [[P66614]^+ [NTf2]^−] | 10.9 | – |
| triethyl octyl phosphonium bis(trifluoromethylsulfonyl)imide [[P2228]^+ [NTf2]^−] | 13.9 | – |
| FC(F)(F)F [CF4] | – | 17.1 |
